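96-well plates; 48 h exposure; 5 concentrations. Endpoints by linear interpolation between flanking doses. Not reached: highest tested concentration assigned. GI50 marks 50% less growth.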 Active and inactive are the calls of the source. Rule as the data show it: active = GI50 up to about 1.1 µM and inactive = higher.

What all share (assay): DTP human tumour cell line panel, 48 h
The test system of assay [1] is A498.
For assay [2], the system named is A549.
In assay [3] the test system is ACHN.
Assay [4] relates to HOP-62.
Assay [5] concerns LOX IMVI.
Assay [6] deals with MDA-MB-231.
For assay [7], the system named is MOLT-4.
Assay [8] deals with Malme-3M.
Assay [9] concerns NCI/ADR-RES.
Assay [10] has as its system SNB-19.
Assay [11] concerns SNB-75.
Assay [12] deals with SR.
The test system of assay [13] is U-251.
In assay [14] the test system is COLO 205.
The subject of assay [15] is NCI-H226.
Assay [16] relates to SF-539.
The subject of assay [17] is SK-OV-3.
The test system of assay [18] is MCF7.

As a reminder, the GI50 is the concentration at which growth is held to half of that of the control. For the compound `CCN(CC(=O)O)C(=O)c1cccnc1`, the GI50 in assay [1], in assay [2], in assay [3], in [4], in assay [5] and in assay [6] was > 100 µM (inactive) in each case. In addition, the GI50 in assay [7], in assay [8], in [9], in [10], in assay [11] and in [12] was > 100 µM (inactive) in each case. The GI50 in assay [13] was > 100 µM (inactive).

Turning to `O=S(=O)(O)Nc1ccc(-c2nc3ccccc3s2)cc1Cl`, the GI50 in [1], in assay [2], in assay [3], in [14], in assay [4] and in assay [5] was > 100 µM (inactive) in each case. Further, the GI50 was > 100 µM (inactive) in assay [6]; > 100 µM (inactive) in assay [8]; 14.6 µM (inactive) in [15]; > 100 µM (inactive) in [9]; > 100 µM (inactive) in [16]; > 100 µM (inactive) in assay [17]. Also, the GI50 in assay [10], in [11], in [12] and in assay [13] was > 100 µM (inactive) in each case.

On to `COc1ccc2c(c1)CCCN1Cc3cc(OC)c(OC)cc3CC21` (centres undefined), for which the GI50 in [2] was > 100 µM (inactive); in assay [3], > 100 µM (inactive); in assay [14] it was 51.1 µM (inactive); in [4], 60.4 µM (inactive); in [5] it was 44.8 µM (inactive); in [18], > 100 µM (inactive). The GI50 in assay [6] is > 100 µM (inactive); in [7], > 100 µM (inactive); in assay [8], > 100 µM (inactive); in assay [15] it was > 100 µM (inactive); in [9], > 100 µM (inactive); in assay [16], 81.8 µM (inactive). For the same compound, the GI50 was 66.2 µM (inactive) in assay [17], > 100 µM (inactive) in [10], 21.4 µM (inactive) in assay [11] and > 100 µM (inactive) in assay [13].

With `COc1ccc(/C=C2/SC(c3c(O)ccc4ccccc34)N(NC(=O)CCCCCCCCC(=O)NN3C(=O)/C(=C\c4ccc(OC)c(OC)c4)SC3c3c(O)ccc4ccccc34)C2=O)cc1OC` (centres undefined), the GI50 in assay [1] was 7.6 µM (inactive); in assay [2], 1.44 µM (inactive); in assay [3], 0.755 µM (active); in assay [14], 3.15 µM (inactive); in assay [4], 0.65 µM (active); in assay [5], 0.394 µM (active). The GI50 in [18] was 1.71 µM (inactive); in assay [7], 0.176 µM (active); in [8], 2 µM (inactive); in assay [15] it was 0.855 µM (active); in assay [9] it was 1.77 µM (inactive); in [16], 1.01 µM (active). The GI50 is 2.24 µM (inactive) in [17]; 9.2 µM (inactive) in assay [10]; 8.53 µM (inactive) in assay [11]; 0.0962 µM (active) in assay [12]; 1.26 µM (inactive) in assay [13].

For the compound `O=C(Nc1ccc(/N=N/c2ccccc2)cc1)Sc1ccccc1C(=O)O`, the GI50 in assay [1], in assay [2], in [3], in assay [14], in assay [4] and in assay [5] was > 100 µM (inactive) throughout. Further, the GI50 in [7], in [15], in assay [16], in assay [10], in assay [11] and in [12] was > 100 µM (inactive) throughout. The GI50 in assay [13] is > 100 µM (inactive).

Regarding `O=C(C/C=C/c1ccccc1)c1ccccc1`, the GI50 in [1] was 15.7 µM (inactive); in assay [2] it was 10.8 µM (inactive); in assay [3], 16.6 µM (inactive); in [14], 22.5 µM (inactive); in assay [4], 26.9 µM (inactive); in assay [5] it was 12 µM (inactive). Further, the GI50 was 15 µM (inactive) in assay [18]; 20.8 µM (inactive) in assay [7]; 29.5 µM (inactive) in assay [15]; 15.3 µM (inactive) in [9]; 25 µM (inactive) in assay [16]; 49.5 µM (inactive) in assay [17]. Besides, the results for the GI50 in assay [11], in [12] and in [13] were 20.6 µM (inactive), 12.4 µM (inactive) and 14.6 µM (inactive), respectively.

As to `CCOC(=O)c1csc(NC(=O)C(C)N2CCCC2)n1` (centres undefined), the GI50 in [1], in assay [2], in [3], in assay [14], in assay [4] and in assay [5] was > 100 µM (inactive) throughout. The GI50 in assay [18], in assay [6], in assay [16], in assay [17], in assay [10] and in [11] was > 100 µM (inactive) each time. In addition, the GI50 in [13] was > 100 µM (inactive).

Turning to `Nc1ccc(C2NC(=O)Cc3c2ccc2ccccc32)cc1` (centres undefined), the GI50 is > 100 µM (inactive) in assay [1]; 33.2 µM (inactive) in assay [2]; 58.1 µM (inactive) in [3]; 76.2 µM (inactive) in [14]; 56.2 µM (inactive) in assay [4]; > 100 µM (inactive) in assay [5]. Besides, the GI50 in [18] is 76 µM (inactive); in assay [7], > 100 µM (inactive); in assay [8], 47 µM (inactive); in assay [15] it was 34.4 µM (inactive); in [16], 90.6 µM (inactive); in [17], > 100 µM (inactive). The GI50 in assay [10], in [11], in [12] and in assay [13] was > 100 µM (inactive) in each case.

Turning to `Cc1nc(C)c(C(=O)NNC(=O)C[N+](C)(C)C)cc1C(=O)NNC(=O)C[N+](C)(C)C`, the GI50 in assay [1], in [2], in assay [3], in assay [14], in [4] and in [5] was > 100 µM (inactive) in each case. Moreover, the GI50 in assay [18], in assay [6], in [15], in assay [9], in assay [16] and in [17] was > 100 µM (inactive) in each case. Besides, the GI50 in assay [10], in [11] and in assay [13] was > 100 µM (inactive) in each case.

These data come from ChEMBL document CHEMBL1201862, “PubChem BioAssay data set” (2004).
